Test results from ChEMBL document CHEMBL4811309, “Design, synthesis and antiproliferative activity of novel 2,4-diamino-5-methyleneaminopyrimidine derivatives as potential anticancer agents” (Bioorg Med Chem Lett, 2021).

What was measured:
MCF7 [1] = test: Antiproliferative activity against human MCF7 cells assessed as reduction in cell viability by MTT assay; assay type: functional, cell-based
HCT-116 [2] = test: Antiproliferative activity against human HCT-116 cells assessed as reduction in cell viability by MTT assay; assay type: functional, cell-based
HeLa [3] = test: Antiproliferative activity against human HeLa cells assessed as reduction in cell viability by MTT assay; assay type: functional, cell-based
HT-29 [4] = test: Antiproliferative activity against human HT-29 cells assessed as reduction in cell viability by MTT assay; assay type: functional, cell-based
HCT-116 [5] = test: Cell cycle arrest in human HCT-116 cells assessed as accumulation at S phase at 10 uM measured after 24 hrs by propidium iodide staining based flow cytometry analysis (reference value: 39%); assay type: functional
MCF7 [6] = test: Potency index, ratio of 5-FU IC50 to test compound IC50 for antiproliferative activity against human MCF7 cells by MTT assay; assay type: functional
HCT-116 [7] = test: Cell cycle arrest in human HCT-116 cells assessed as accumulation at G2M phase at 5 uM measured after 24 hrs by propidium iodide staining based flow cytometry analysis (reference value: 30.39 %); assay type: functional
HCT-116 [8] = test: Cell cycle arrest in human HCT-116 cells assessed as accumulation at G0/G1 phase at 10 uM measured after 24 hrs by propidium iodide staining based flow cytometry analysis (reference value: 30.60 %); assay type: functional
HCT-116 [9] = test: Cell cycle arrest in human HCT-116 cells assessed as accumulation at S phase at 2.5 uM measured after 24 hrs by propidium iodide staining based flow cytometry analysis (reference value: 39%); assay type: functional
HCT-116 [10] = test: Induction of apoptosis in human HCT-116 cells assessed as late apoptotic cells at 10 uM incubated for 24 hrs by annexin V-FITC and propidium iodide staining based flow cytometry analysis (reference value: 0.899 %); assay type: functional
HCT-116 [11] = test: Induction of apoptosis in human HCT-116 cells assessed as necrotic cells at 10 uM incubated for 24 hrs by Annexin V-FITC and propidium iodide staining based flow cytometry analysis (reference value: 0.019 %); assay type: functional
HCT-116 [12] = test: Cell cycle arrest in human HCT-116 cells assessed as accumulation at G0/G1 phase at 2.5 uM measured after 24 hrs by propidium iodide staining based flow cytometry analysis (reference value: 30.60 %); assay type: functional
HCT-116 [13] = test: Cell cycle arrest in human HCT-116 cells assessed as accumulation at S phase at 5 uM measured after 24 hrs by propidium iodide staining based flow cytometry analysis (reference value: 39%); assay type: functional
HCT-116 [14] = test: Induction of apoptosis in human HCT-116 cells assessed as early apoptotic cells at 10 uM incubated for 24 hrs by Annexin V-FITC and propidium iodide staining based flow cytometry analysis (reference value: 6.19 %); assay type: functional
HCT-116 [15] = test: Induction of apoptosis in human HCT-116 cells assessed as early apoptotic cells at 5 uM incubated for 24 hrs by Annexin V-FITC and propidium iodide staining based flow cytometry analysis (reference value: 6.19 %); assay type: functional
HCT-116 [16] = test: Potency index, ratio of 5-FU IC50 to test compound IC50 for antiproliferative activity against human HCT-116 cells by MTT assay; assay type: functional
HCT-116 [17] = test: Induction of apoptosis in human HCT-116 cells assessed as necrotic cells at 5 uM incubated for 24 hrs by Annexin V-FITC and propidium iodide staining based flow cytometry analysis (reference value: 0.019 %); assay type: functional
HCT-116 [18] = test: Induction of apoptosis in human HCT-116 cells assessed as necrotic cells at 2.5 uM incubated for 24 hrs by Annexin V-FITC and propidium iodide staining based flow cytometry analysis (reference value: 0.019 %); assay type: functional
HCT-116 [19] = test: Induction of apoptosis in human HCT-116 cells assessed as viable cells at 2.5 uM incubated for 24 hrs by Annexin V-FITC and propidium iodide staining based flow cytometry analysis (reference value: 92.9 %); assay type: functional; details: read-out: Activity
HCT-116 [20] = test: Cell cycle arrest in human HCT-116 cells assessed as accumulation at G2M phase at 2.5 uM measured after 24 hrs by propidium iodide staining based flow cytometry analysis (reference value: 30.39 %); assay type: functional
HCT-116 [21] = test: Induction of apoptosis in human HCT-116 cells assessed as early apoptotic cells at 2.5 uM incubated for 24 hrs by Annexin V-FITC and propidium iodide staining based flow cytometry analysis (reference value: 6.19 %); assay type: functional
HCT-116 [22] = test: Induction of apoptosis in human HCT-116 cells assessed as viable cells at 10 uM incubated for 24 hrs by Annexin V-FITC and propidium iodide staining based flow cytometry analysis (reference value: 92.9 %); assay type: functional; details: read-out: Activity
HCT-116 [23] = test: Cell cycle arrest in human HCT-116 cells assessed as accumulation at G0/G1 phase at 5 uM measured after 24 hrs by propidium iodide staining based flow cytometry analysis (reference value: 30.60 %); assay type: functional
HCT-116 [24] = test: Induction of apoptosis in human HCT-116 cells assessed as viable cells at 5 uM incubated for 24 hrs by Annexin V-FITC and propidium iodide staining based flow cytometry analysis (reference value: 92.9 %); assay type: functional; details: read-out: Activity
HCT-116 [25] = test: Induction of apoptosis in human HCT-116 cells assessed as late apoptotic cells at 2.5 uM incubated for 24 hrs by Annexin V-FITC and propidium iodide staining based flow cytometry analysis (reference value: 0.899 %); assay type: functional
HT-29 [26] = test: Potency index, ratio of 5-FU IC50 to test compound IC50 for antiproliferative activity against human HT-29 cells by MTT assay; assay type: functional
HCT-116 [27] = test: Cell cycle arrest in human HCT-116 cells assessed as accumulation at G2M phase at 10 uM measured after 24 hrs by propidium iodide staining based flow cytometry analysis (reference value: 30.39 %); assay type: functional
HCT-116 [28] = test: Induction of apoptosis in human HCT-116 cells assessed as late apoptotic cells at 5 uM incubated for 24 hrs by Annexin V-FITC and propidium iodide staining based flow cytometry analysis (reference value: 0.899 %); assay type: functional
HeLa [29] = test: Potency index, ratio of 5-FU IC50 to test compound IC50 for antiproliferative activity against human HeLa cells by MTT assay; assay type: functional

In the case of `NS(=O)(=O)c1ccc(Nc2ncc(/N=C/c3ccc(C(F)(F)F)cc3)c(NC3CCCC3)n2)cc1`, the IC50 (MCF7 [1]) is reported as over 100 µM, the IC50 (HCT-116 [2]) is reported as over 100 µM and the IC50 (HeLa [3]) is reported as 21.9 µM. For the same compound, the IC50 (HT-29 [4]) was over 100 µM.
Work on `CC(C)Nc1nc(Nc2ccc(N3CCOCC3)cc2)ncc1/N=C/c1ccccc1` yielded an IC50 (MCF7 [1]) of over 100 µM, an IC50 (HCT-116 [2]) of over 100 µM and an IC50 (HeLa [3]) of over 100 µM. It also gave an IC50 (HT-29 [4]) of over 100 µM.
`C(=N\c1cnc(Nc2ccc(N3CCOCC3)cc2)nc1NC1CCCC1)/c1cccs1` showed an IC50 (MCF7 [1]) of over 100 µM, an IC50 (HCT-116 [2]) of over 100 µM and an IC50 (HeLa [3]) of over 100 µM. For the same compound, the IC50 (HT-29 [4]) was 20.8 µM.
`CC(C)Nc1nc(Nc2ccc(N3CCOCC3)cc2)ncc1/N=C/c1ccc(C(F)(F)F)cc1` gave an IC50 (MCF7 [1]) of over 100 µM, an IC50 (HCT-116 [2]) of over 100 µM and an IC50 (HeLa [3]) of over 100 µM. The IC50 (HT-29 [4]) was over 100 µM.
`O=c1[nH]cc(F)c(=O)[nH]1` [FLUOROURACIL] gave an IC50 (MCF7 [1]) of 18.1 µM, an IC50 (HeLa [3]) of 42.7 µM and an IC50 (HT-29 [4]) of 16.1 µM.
Work on `CCOC(=O)/C=N/c1cnc(Nc2ccc(S(N)(=O)=O)cc2)nc1NC(C)C` yielded an IC50 (MCF7 [1]) of 58.8 µM, an IC50 (HCT-116 [2]) of 49.1 µM and an IC50 (HeLa [3]) of 83.3 µM. The IC50 (HT-29 [4]) was over 100 µM.
In the case of `CCOC(=O)/C=N/c1cnc(Nc2ccc(N3CCOCC3)cc2)nc1NC1CCCC1`, the Activity (HCT-116 [5]) is reported as 28.47%, the IC50 (MCF7 [1]) is reported as 8.84 µM and the Ratio IC50 (MCF7 [6]) is reported as 2.1. For the same compound, the Activity (HCT-116 [7]) was 33.02%, the Activity (HCT-116 [8]) was 41.55% and the IC50 (HCT-116 [2]) was 4.93 µM. For the same compound, the Activity (HCT-116 [9]) was 37.77%, the Activity (HCT-116 [10]) was 24.4% and the Activity (HCT-116 [11]) was 3.09%. It also gave an Activity (HCT-116 [12]) of 34.63%, an Activity (HCT-116 [13]) of 30.52% and an Activity (HCT-116 [14]) of 28%. The Activity (HCT-116 [15]) was 24.2%, the “Ratio IC50” value (HCT-116 [16]) was 4.9 and the Activity (HCT-116 [17]) was 0.62%. For the same compound, the Activity (HCT-116 [18]) was 0.195%, the viability at 2.5 µM (HCT-116 [19]) was 80.3% and the Activity (HCT-116 [20]) was 27.6%. It also gave an IC50 (HeLa [3]) of 14.2 µM, an Activity (HCT-116 [21]) of 10.6% and a viability at 10 µM (HCT-116 [22]) of 44.5%. The Activity (HCT-116 [23]) was 36.46%, the viability at 5 µM (HCT-116 [24]) was 63.5% and the Activity (HCT-116 [25]) was 8.86%. The “Ratio IC50” value (HT-29 [26]) was 2.9, the Activity (HCT-116 [27]) was 29.98% and the IC50 (HT-29 [4]) was 5.57 µM. For the same compound, the Activity (HCT-116 [28]) was 11.7% and the Ratio IC50 (HeLa [29]) was 3.
Work on `CC(C)Nc1nc(Nc2ccc(N3CCN(C)CC3)cc2)ncc1/N=C/c1ccccc1` yielded an IC50 (MCF7 [1]) of over 100 µM, an IC50 (HCT-116 [2]) of over 100 µM and an IC50 (HeLa [3]) of over 100 µM. The IC50 (HT-29 [4]) was 12.1 µM.
`CCOC(=O)/C=N/c1cnc(Nc2ccc(S(N)(=O)=O)cc2)nc1NC1CCCC1` gave an IC50 (MCF7 [1]) of 42.2 µM, an IC50 (HCT-116 [2]) of 9.64 µM and an IC50 (HeLa [3]) of 20.7 µM. The IC50 (HT-29 [4]) was 23.6 µM.
For `CCOC(=O)/C=N/c1cnc(Nc2ccc(N3CCN(C)CC3)cc2)nc1NC1CCCC1`, the IC50 (MCF7 [1]) was 42.3 µM, the IC50 (HCT-116 [2]) was 17 µM and the IC50 (HeLa [3]) was 18.9 µM. It also gave an IC50 (HT-29 [4]) of 15.1 µM.
With `CN1CCN(c2ccc(Nc3ncc(/N=C/c4ccc(C(F)(F)F)cc4)c(NC4CCCC4)n3)cc2)CC1` the IC50 (MCF7 [1]) was over 100 µM, the IC50 (HCT-116 [2]) was over 100 µM and the IC50 (HeLa [3]) was over 100 µM. It also gave an IC50 (HT-29 [4]) of 80.7 µM.
`CC(C)Nc1nc(Nc2ccc(N3CCN(C)CC3)cc2)ncc1/N=C/c1ccc(C(F)(F)F)cc1` gave an IC50 (MCF7 [1]) of over 100 µM, an IC50 (HCT-116 [2]) of 42.2 µM and an IC50 (HeLa [3]) of over 100 µM. For the same compound, the IC50 (HT-29 [4]) was over 100 µM.
For `CCOC(=O)/C=N/c1cnc(Nc2ccc(S(N)(=O)=O)cc2)nc1NC1CC1`, the IC50 (MCF7 [1]) was over 100 µM, the IC50 (HCT-116 [2]) was over 100 µM and the IC50 (HeLa [3]) was over 100 µM. It also gave an IC50 (HT-29 [4]) of over 100 µM.
